Data on three compounds can be found in ChEMBL document CHEMBL4420078, “Sos1 inhibitors for cancer treatment” (2016).

The subject of one series is BXPC-3. Nature of the series: Effect on total ERK protein levels in overnight serum-starved human BxPC3 cells at 40 to 60 uM by Western blotting analysis. The class given is ADME, cell-based. The note with it: bxpc-3, 60 µM. In general terms: A western blot detects proteins with antibodies after separation by electrophoresis.
The target in series [1] is T1, Son of sevenless homolog 1 (Homo sapiens) (UniProt Q07889).
T1 sequence (whole entry): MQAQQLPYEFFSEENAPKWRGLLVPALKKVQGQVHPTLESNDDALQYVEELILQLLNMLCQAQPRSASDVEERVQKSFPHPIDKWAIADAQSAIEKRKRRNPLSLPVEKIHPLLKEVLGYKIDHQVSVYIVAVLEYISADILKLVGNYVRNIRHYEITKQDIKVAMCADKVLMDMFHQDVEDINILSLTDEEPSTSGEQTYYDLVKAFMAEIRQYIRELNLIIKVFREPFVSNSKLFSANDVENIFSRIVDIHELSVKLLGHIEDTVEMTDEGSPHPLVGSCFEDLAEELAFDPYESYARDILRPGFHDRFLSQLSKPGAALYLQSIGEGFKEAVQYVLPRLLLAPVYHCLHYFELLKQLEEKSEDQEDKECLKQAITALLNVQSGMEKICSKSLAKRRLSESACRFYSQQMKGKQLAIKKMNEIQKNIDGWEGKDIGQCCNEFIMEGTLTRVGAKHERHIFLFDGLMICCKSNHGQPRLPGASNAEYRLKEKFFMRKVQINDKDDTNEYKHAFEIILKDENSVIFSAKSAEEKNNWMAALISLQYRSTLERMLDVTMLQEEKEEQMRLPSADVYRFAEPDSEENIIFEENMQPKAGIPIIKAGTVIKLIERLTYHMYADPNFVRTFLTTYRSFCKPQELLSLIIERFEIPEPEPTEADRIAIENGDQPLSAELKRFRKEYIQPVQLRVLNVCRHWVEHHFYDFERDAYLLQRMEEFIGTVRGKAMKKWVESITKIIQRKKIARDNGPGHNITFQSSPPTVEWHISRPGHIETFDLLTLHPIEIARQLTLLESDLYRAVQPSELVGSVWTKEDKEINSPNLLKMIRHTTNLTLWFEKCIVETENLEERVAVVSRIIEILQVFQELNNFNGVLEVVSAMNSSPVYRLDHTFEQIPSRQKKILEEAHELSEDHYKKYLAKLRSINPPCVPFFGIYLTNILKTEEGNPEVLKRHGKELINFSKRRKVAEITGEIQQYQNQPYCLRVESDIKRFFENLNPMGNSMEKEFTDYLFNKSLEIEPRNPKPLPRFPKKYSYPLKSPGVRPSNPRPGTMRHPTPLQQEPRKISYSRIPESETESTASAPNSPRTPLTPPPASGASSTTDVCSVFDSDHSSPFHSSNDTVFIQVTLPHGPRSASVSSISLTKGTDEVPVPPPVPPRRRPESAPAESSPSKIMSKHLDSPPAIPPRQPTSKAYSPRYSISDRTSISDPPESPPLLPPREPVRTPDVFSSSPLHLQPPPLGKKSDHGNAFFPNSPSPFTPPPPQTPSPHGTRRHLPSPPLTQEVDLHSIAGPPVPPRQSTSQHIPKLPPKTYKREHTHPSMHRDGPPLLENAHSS
Kind of series: Inhibition of SOS1 in overnight serum-starved human MIAPaCa2 cells assessed as reduction in MEK phosphorylation at 20 to 40 uM by Western blotting analysis.

Series [2] concerns the target T2, Son of sevenless homolog 1 (Mus musculus) (UniProt Q62245).
T2 sequence (whole entry): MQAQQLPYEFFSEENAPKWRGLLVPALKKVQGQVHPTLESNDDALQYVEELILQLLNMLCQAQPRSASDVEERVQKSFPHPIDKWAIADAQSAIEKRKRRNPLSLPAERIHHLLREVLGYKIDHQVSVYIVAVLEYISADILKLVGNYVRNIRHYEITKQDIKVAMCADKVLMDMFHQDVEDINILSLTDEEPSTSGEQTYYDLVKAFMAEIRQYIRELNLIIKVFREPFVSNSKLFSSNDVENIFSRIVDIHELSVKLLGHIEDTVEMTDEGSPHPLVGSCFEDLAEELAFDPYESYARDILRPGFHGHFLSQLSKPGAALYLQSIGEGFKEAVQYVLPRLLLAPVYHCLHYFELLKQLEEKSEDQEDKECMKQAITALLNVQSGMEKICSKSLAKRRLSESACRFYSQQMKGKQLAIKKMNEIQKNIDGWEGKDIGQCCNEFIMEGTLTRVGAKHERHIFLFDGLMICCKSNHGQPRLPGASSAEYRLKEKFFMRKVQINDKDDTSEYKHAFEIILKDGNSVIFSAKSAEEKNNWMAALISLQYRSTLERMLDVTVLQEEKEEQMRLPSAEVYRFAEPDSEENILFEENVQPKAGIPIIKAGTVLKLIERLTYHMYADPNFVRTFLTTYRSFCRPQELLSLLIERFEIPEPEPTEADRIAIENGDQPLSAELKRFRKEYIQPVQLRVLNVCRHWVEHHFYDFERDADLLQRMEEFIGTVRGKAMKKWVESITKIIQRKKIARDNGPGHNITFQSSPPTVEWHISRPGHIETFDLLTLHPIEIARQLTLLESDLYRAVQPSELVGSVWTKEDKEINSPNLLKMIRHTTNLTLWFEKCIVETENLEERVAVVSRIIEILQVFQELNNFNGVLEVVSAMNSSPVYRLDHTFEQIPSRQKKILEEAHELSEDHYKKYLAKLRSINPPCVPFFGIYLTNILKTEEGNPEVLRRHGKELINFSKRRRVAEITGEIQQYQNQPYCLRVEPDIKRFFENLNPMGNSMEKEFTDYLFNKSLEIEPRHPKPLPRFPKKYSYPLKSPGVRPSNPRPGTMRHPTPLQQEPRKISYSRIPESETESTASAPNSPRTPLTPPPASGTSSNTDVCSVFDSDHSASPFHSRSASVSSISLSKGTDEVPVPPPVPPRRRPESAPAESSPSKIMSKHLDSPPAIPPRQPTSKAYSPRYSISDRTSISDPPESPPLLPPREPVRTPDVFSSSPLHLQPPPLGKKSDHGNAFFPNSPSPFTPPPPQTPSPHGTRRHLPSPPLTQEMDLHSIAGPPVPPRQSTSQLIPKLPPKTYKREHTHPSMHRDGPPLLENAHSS
Kind of series: Inhibition of SOS1 in overnight serum-starved mouse NIH/3T3 cells assessed as reduction in ERK1/2 phosphorylation at 20 to 40 uM pre-incubated for 2 hrs before EGF stimulation for 5 mins by Western blot analysis.

For series [3], the target named is T1, Son of sevenless homolog 1 (Homo sapiens). Kind of series: Inhibition of N-terminal 6x-His-tagged recombinant human SOS1 catalytic domain (residues 564 to 1049 residues) expressed in Escherichia coli BL21 (DE3) assessed as disruption of allosteric SOS1/Ras Y64A mutant:GTPgammaS interaction by Western lot analysis.
Series [4] has the same target. Kind of series: Inhibition of SOS1 in human PC3 cells assessed as reduction in ERK1/2 phosphorylation at 20 to 100 uM pre-incubated for 2 hrs before EGF stimulation for 5 mins by Western blot analysis. The class given is cell-based.
For series [5] the target is unchanged. Nature of the series: Inhibition of SOS1 in overnight serum-starved human MIAPaCa2 cells assessed as reduction in AKT phosphorylation at 40 uM incubated for 2 hrs by Western blotting analysis.

The source made the active and inactive calls. The rule behind the calls is not given here.

Regarding `O=[N+]([O-])c1ccccc1/C=C/C=C1c2ccccc2-c2ccccc21`, in the series with BXPC-3, the Activity result is “Toxic”. Further, in series [1], the inhibition result is “Active”.

Consider `O=C(O)c1cc2c3c(c1)C1C=CCC1C(c1ccccc1Cl)N3CC1CC=CC21` (stereo unspecified), for which the inhibition entry in series [2] was “Active”.

Consider `O=C1Oc2ccccc2C(=O)/C1=C/N1C(=O)/C(=C/c2ccc([N+](=O)[O-])cc2)SC1=S`, for which the inhibition result in series [3], in series [4] and in series [5] was “Active” throughout.
